Data published in patent US12564631B2, “Phytosphingosine derivatives as adjuvants in immune stimulation” (Helmholtz-Zentrum für Infektionsforschung GmbH, priority 2020, dated 2026).
“Also recorded” adds a separate entry of the source.

Key:
Ova-specific IgG = Ova-specific IgG titer (ELISA) in sera of mice immunized with Ovalbumin plus adjuvant; type: in vivo; details: Ovalbumin 30 μg + adjuvant 15 μg, days 0, 14, 28, sera 14 days after last immunization
Description: FIG. 5: Immunization protocol—Administration (intramuscular route) of Ovalbumin with adjuvants. Ovalbumin (30 μg) was co-administered (intramuscular) without or with different adjuvants, such as IPB 2033-2044, c-di-AMP or aßGalCerMPEG (15 μg), on days 0, 14 and 28.
(§1) FIG. 7: Systemic humoral immune responses induced in mice. Shown is the IgG titer as a readout of systemic humoral immune responses induced in mice after three immunizations with Ovalbumin co-administered with different adjuvants via intramuscular route. Ova-specific IgG titers were measured via ELISA in sera 14 days after the last immunization.
FIG. 9: Immunization protocol—Administration (intranasal route) of Ovalbumin with adjuvants. Immunization protocol: Mucosal administration (intranasal (i.n.) route) of Ovalbumin (30 μg) co-administered without or with different adjuvants, such as IPB 2033-2044, c-di-AMP or aßGalCerMPEG (15 μg), on days 0, 14 and 28.
as §1, with “11:” for “7:”, “intranasal” for “intramuscular”, “titers” for “titers were measured via ELISA”
Groups of mice (3-5 animals) were immunized either intranasal (i.n.) or intramuscular (i.m.) on days 0, 14 and 281 with PBS, or with Ovalbumin (30 μg); the latter were administered alone or with different adjuvants—c-di-AMP, aßGalCerMPEG or IPB 2033 to 2044—made up to a maximal volume of 20 μl (i.n.) or 50 μl (i.m.) in PBS.
Blood samples were collected on days 1, 14, 28 and 42 via retro-bulbar bleeding. Spleens of vaccinated mice were aseptically removed. For the subsequent methods, cell suspensions of spleens (n=5) of each immunized groups were prepared and erythrocytes were lysed. These splenocyte pools of each group were cultured in the presence of different concentrations of Ovalbumin; controls received 5 μg/mL concanavalin A. The incorporation of [^3H] thymidine into the DNA of proliferating cells was determined using a scintillation counter (Wallac 1450, Micro-Trilux).
The Ova-specific antibodies were determined in serum samples by ELISA. Endpoint titers were expressed as reciprocal values of the last dilution, which gave an optical density at 405 nm of two times above the values of the negative controls. For calculation purposes, negative samples were assigned an arbitrary titer of the lowest dilution measured.
As described in the protocols above, groups of mice (3-5 animals) were immunized either intranasal (i.n.) or intramuscular (i.m.) on days 0, 14 and 281 with PBS, or with Ovalbumin (30 μg); the latter were administered alone or with different adjuvants—c-di-AMP, aßGalCerMPEG or IPB 2033 to 2044—is shown in FIG. 5-11, intramuscular.

CD8+ T cells = test: CFSE proliferation assay of CD8+ T cells after interaction with Ova/adjuvant-matured bone marrow derived DCs (APC); type: cell-based, mice; details: for effect to induce antigen specific CD8+ T cell proliferation: DCs restimulated with Ovalbumin + 10 μg compound for 24 h, interaction with APC for 5 days, FIG. 3C
Text: FIG. 3C: Cell proliferation tracked by CFSE dilution of CD8+ T cells after interaction with matured Antigen Presenting Cells (APC). With every cell division, the CFSE signal strength is approximately halved. The shown cell numbers indicate the ratio of proliferated live CD8+ T cells
(§2) FIG. 4: Effect after treatment with IPB 0964-1917—Cell proliferation tracked by CFSE loss of T cells after interaction with matured Antigen Presenting Cells (APC). With every cell division, the CFSE signal strength is reduced. The shown cell numbers indicate the ratio of proliferating T and B cells (7 steps are shown). (A) Numbers of CD4+ T cells are shown at different proliferation steps up to 7 days measuring the loss of CFSE. Naïve cells were treated with one of IPB1901-1912 together with DCs activated with Ova prior to the CFSE assay. (B) Numbers of CD4+ T cells are shown at different proliferation steps up to 7 days measuring the loss of CFSE. Naïve cells were treated with one of IPB2033-2044 together with DCs activated with Ova prior to the CFSE assay. (C) Numbers of CD8+ T cells are shown at different proliferation steps up to 7 days measuring the loss of CFSE. Naïve cells were treated with one of IPB1901-1912 together with DCs activated with Ova prior to the CFSE assay. (D) Numbers of CD8+ T cells are shown at different proliferation steps up to 7 days measuring the loss of CFSE. Naïve cells were treated with one of IPB2033-2044 together with DCs activated with Ova prior to the CFSE assay.
(§3) In order to assess the properties of the inventive compounds in antigen-specific T and B cell stimulation, the compounds were administered to cultured bone marrow cells in a CFSE assay.
(§4) Briefly, femurs and Tibiae of female 4-12 weeks old C57Bl6 (or BALB/c for TCR HA) were removed and purified from the surrounding muscle tissue (Kleenex tissues). Intact Bones were left in 70% ethanol for 2-5 min for disinfection. Both ends were cut with scissors and the bone marrow were flushed with PBS using a syringe with a 0.45 mm diameter needle, clusters were disintegrated by vigorous pipetting.
(§5) In order to obtain activated antigen presenting dendritic cells (DCs), bone marrow cells were cultured with GM-CSF. On Day 0, cells were seeded in a concentration of 2×10^6 cells per 100 mm dish (bacteriological petri dishes) in 10 ml RPMI-10 (100 U Pen/100 μg Strept/2 mM Glutamin/50 μm ß-Mercaptoethanol/10% FCS heat-inactivated and filtered 0.22 μm Filter) containing 200 Units GM-CSF. On Day 3 another 10 ml RPMI-10 containing 200 U GM-CSF were added to the plates. On Day 6 half of the culture supernatants (10 ml) were collected, centrifuged and the cell pellet resuspended in 10 ml fresh RPMI-10/200 U GM-CSF and given back into the original plates.
(§6) Subsequently, the DCs were incubated with Ovalbumin (as antigen) alone or co-administered with known adjuvants, such as α-GalCerMPEG, aßGalCerMPEG or TLR2/6 ligand (BPPcysMPEG), or the novel phytosphingosine derivatives of the present invention. The activation of DCs was controlled by FACS analysis of different CD markers, such as CD40, CD54, CD80, CD86, CD83, MHCI and MHCII.
(§7) The effect of the compounds of the present invention was then ascertained via co-incubation of naïve T or B cells, obtained from mice (OTI or OTII mice) with previous exposure to the Ova antigen, with DCs that had been treated with the compounds of the invention.
(§8) Naïve T cells were derived from LN/spleen from OTI or OTII mice. The MagniSort™ Mouse CD4 naïve or CD8 naïve T cell Enrichment Kit is designed for the magnetic separation of CD4 or CD8 naïve T cells by negative selection from mouse spleens or lymph nodes utilizing a biotinylated antibody cocktail and streptavidin-coated magnetic beads. Undesired cells are bound by antibody (Anti-Mouse CD8 or CD4/CD11b CD19/CD24/CD44/CD45R(B220)/CD49b(Integrin α 2)/Ly-6G (Gr-1)/γδ TCR/TER-119) and then magnetic beads that, when placed in a magnetic field, leave CD4 or CD8 naïve T cells untouched and free in solution. […]

CD4+ T cells = test: CFSE proliferation assay of CD4+ T cells after interaction with Ova/adjuvant-matured bone marrow derived DCs (APC); type: cell-based, mice; details: for stimulating effect of CD4+ T cells versus controls with only antigen Ova: CFSE loss up to 7 days, DCs activated with Ova + 10 μg compound, FIG. 4A/4B; for capacity to induce antigen specific CD4+ T cell proliferation: DCs restimulated with Ovalbumin + 10 μg compound for 24 h, interaction with APC for 5 days, FIG. 3B
Text: FIG. 3B: Cell proliferation tracked by CFSE dilution of CD4+ T cells after interaction with matured Antigen Presenting Cells (APC). With every cell division, the CFSE signal strength is approximately halved. The shown cell numbers indicate the ratio of proliferated live CD4+ T cells.
as §2, §3, §4, §5, §6, §7, §8

splenocytes = test: Unspecific proliferation assay of splenocytes ([3H]thymidine incorporation); type: cell-based, mice; details: for induction of unspecific proliferation in splenocytes: summary statement
Description: FIG. 2: Analysis of unspecific proliferative responses of murine cells stimulated without or with enhanced concentrations of the Phytosphingosine-compounds. Splenocytes from mice were re-stimulated for 96 h with different concentrations of adjuvant (1, 10 and 20 μg/ml). The results are presented by are expressed (A-C) as counts per minute (cpm) and (D-F) stimulation index (SI) being the ratio of [^3H]-thymidine uptake of stimulated versus non-stimulated samples. (A) and (D) show data for α-GalCer controls, (B) and (E) show data for IPB1901-1910, and (C) and (F) show data for IPB1911-1917.
In order to assess the properties of the inventive compounds in antigen-unspecific immune response stimulation the compounds were administered to splenocytes in an established proliferation assay.
For the proliferation assay, splenocytes (5×10^6 cells/ml) are seeded at 100 μl per well in a U-bottomed 96-well microtiter plate (Sarstedt Inc., Newton, N.C.) and cultured in quadruplicates 4 days in the presence of enhanced concentrations of adjuvant (1, 10 and 20 μg/ml)), 5 μg/ml of Concanavalin A (max); or medium alone. Eighteen hours before harvesting, 1 μCi of [3H]thymidine (Amersham International, Freiburg, Germany) is added to each well. Cells are harvested on paper filters (Filtermat A; Wallac, Freiburg, Germany) using a cell harvester (Inotech, Wohlen, Switzerland) and the incorporation of [3H] thymidine into the DNA of proliferating cells is determined using a scintillation counter (Wallac 1450, Micro-Trilux).

Row | SMILES | stimulation of antigen specific IgG production compared to control aßGalCerMPEG+ova (Ova-specific IgG; intramuscular (i.m.), FIG. 7) | stimulation of antigen specific IgG production compared to control aßGalCerMPEG+ova (Ova-specific IgG; intranasal (i.n.), FIG. 11) | stimulating effect of CD8+ T cells versus controls with only antigen Ova (CD8+ T cells; CFSE loss up to 7 days, DCs activated with Ova + 10 μg compound, FIG. 4C/4D) | stimulating effect of CD4+ T cells versus controls with only antigen Ova (CD4+ T cells) | effect to induce antigen specific CD8+ T cell proliferation (CD8+ T cells) | Stimulation index (SI) (splenocytes; splenocytes restimulated 96 h with 1, 10 and 20 μg/ml compound, ratio of [3H]-thymidine uptake of stimulated versus non-stimulated samples, FIG. 2E/2F) | induction of unspecific proliferation in splenocytes (splenocytes) | capacity to induce antigen specific CD4+ T cell proliferation (CD4+ T cells)
1 | CCCCCCCCCCCCCCCCCCCCCCCCCC(=O)N(CC(=O)NC1CCCCC1)[C@@H](CO[C@H]1OC(CO)[C@H](O)C(O)C1O)[C@H](O)[C@H](O)CCCCCCCCCCCCCC (stereo partly shown) [IPB 2039] | improved stimulation | improved stimulation | stimulating effect of CD8+ T cells beyond controls | stimulating effect of CD4+ T cells beyond controls |  |  |  | 
2 | CCCCCCCCCCCCCCCCCCCCCCCC(=O)N(CC(=O)NCCC(=O)O)[C@@H](CO[C@H]1OC(CO)[C@H](O)C(O)C1O)[C@H](O)[C@H](O)CCCCCCCCCCCCCC (stereo partly shown) [IPB 1910] |  |  |  |  | strong effect; also recorded: beneficial effect | ca. 2 | beneficial induction of unspecific proliferation | high capacity; also recorded: beneficial capacity
3 | CCCCCCCCCCCCCCCCCCCCCCCC(=O)N(CC(=O)NCC(OC)OC)[C@@H](CO[C@H]1OC(CO)[C@H](O)C(O)C1O)[C@H](O)[C@H](O)CCCCCCCCCCCCCC (stereo partly shown) [IPB 1911] |  |  |  |  | strong effect; also recorded: beneficial effect |  | beneficial induction of unspecific proliferation | high capacity; also recorded: beneficial capacity
4 | CCCCCCCCCCCCCCCCCCCCCCCC(=O)N(CC(=O)NCCC(=O)O)[C@@H](CO[C@H]1OC(CO)[C@H](O)C(O)C1O)[C@H](O)[C@H](O)CCCCCCCCCCCCCC (stereo partly shown) [IPB 0964] |  |  |  |  | strong effect; also recorded: beneficial effect |  |  | high capacity
5 | CCCCCCCCCCCCCCCCCCCCCCCCCC(=O)N(CC(=O)NCC(OC)OC)[C@@H](CO[C@H]1OC(CO)[C@H](O)C(O)C1O)[C@H](O)[C@H](O)CCCCCCCCCCCCCC (stereo partly shown) [IPB 2038] | at least equivalent | improved stimulation |  | stimulating effect of CD4+ T cells beyond controls |  |  |  | 
